Reference: US7098219B2, “Inhibitors of cellular efflux pumps of microbes” (Wockhart Limited, priority 2000, dated 2006)

What follows are compounds tested on Staphylococcus aureus 1199 B NorA+. Settings: combination with ciprofloxacin, broth microdilution checkerboard, 35° C. 20 hours; FIC index ≦0.5 synergistic, 0.5–2.0 additive, >2.0 antagonistic.
Assay type: cell-based
Description: Testing method for inhibition of the efflux pump of Staphylococcus aureus 1199B NorA^+
[…]. Victor Lorian, Md., Fourth edition 1996, pp 333–338).
In short, the assay involves broth microdilution method performed as recommended by the National Committee for Clinical Laboratory Standards (NCCLS) 1997 (Methods for Dilution of Antimicrobial Susceptibility Tests for Bacteria that Grow Aerobically, Fourth edition; Approved Standard, NCCLS document M7-A4, vol. 17, No. 2). The test organism used for the assay is Staphylococcus aureus 1199 B NorA^+.
[…]. Stock solutions of the efflux pump inhibitors tested are prepared in dimethyl sulfoxide (DMSO) at a final concentration of 5 mg/ml. Stock solutions are further diluted in Mueller Hinton Broth as per the need of the assay. Ciprofloxacin is dissolved in water.
The checkerboard assay is performed in microtiter plates. […] The efflux pump inhibitor is diluted in the Y-axis, each row containing an equal concentration of efflux pump inhibitor. The result of these manipulations is that each well of the microtiter plate contains a unique combination of concentrations of the two agents. Bacterial inoculum is added at 5×10^5 CFU/ml. Microtiter plates are incubated at 35° C. for 20 hours. Reading is done by visibly noting turbidity and confirmed using a microtiter plate reader (Molecular Devices). The FIC index is calculated as
(A) is the concentration of the experimental efflux pump inhibitor in the well that is the lowest inhibitory concentration in the Y-axis. (MICA) is the MIC of Staphylococcus aureus to experimental efflux pump inhibitor alone. FICA is the fractional inhibitory concentration of an experimental efflux pump inhibitor. […] (Antimicrobial Combination In Antibiotics in Laboratory Medicine, Ed. Victor Lorian, Md., Fourth edition 1996, pp 333–338).
With “5-Amino-1-ethyl-6,8-difluoro-1,4-dihydro-7-[(1∝,5∝,6∝)-6′-(N-t-butoxycarbonylamino)-3-azabicyclo[3.1.0]-hex-3-yl}-4-oxo-quinoline-3-carboxylic acid [Example 8 (NorA)]” the “FIC INDEX” value was 0.314. `CCn1cc(C(=O)O)c(=O)c2cc(F)c(N3CCc4ccccc4C3)cc21` [1 (NorA), 1-Ethyl-6-fluoro-1,4-dihydro-7-(1′,2′,3′,4′-tetrahydroisoquinolin-2-yl)-4-oxo-quinoline-3-carboxylic acid] was tested, and the “FIC INDEX” value was 0.314. `CCn1cc(C(=O)O)c(=O)c2c(N)c(F)c(N3CC(N)CC3C)c(F)c21` (stereo not drawn) [5 (NorA), 5-Amino-1-ethyl-6,8-difluoro-1,4-dihydro-7-(3′-amino-5′-methylpyrrolidin-1-yl)-4-oxo-quinoline-3-carboxylic acid] was tested, and the “FIC INDEX” value was 0.378. For `CC(=O)NC1CC(C)N(c2cc3c(cc2F)c(=O)c(C(=O)O)cn3C2CC2)C1` (stereo not drawn) [9 (NorA), 1-Cyclopropyl-6-fluoro-1,4-dihydro-7-(3′-acetamido-5′-methylpyrrolidin-1-yl)-4-oxo-quinoline-3-carboxylic acid], the “FIC INDEX” value was 0.314. With `COc1c(N2CCC(N(C)C)C(C)C2)c(F)cc2c(=O)c(C(=O)O)cn(C3CC3)c12` (stereo not drawn) [19 (NorA), 1-Cyclopropyl-6-fluoro-8-methoxy-1,4-dihydro-7-{4′-(N-dimethylamino)-3′-methylpiperidin-1-yl}-4-oxo-quinoline-3-carboxylic acid] the “FIC INDEX” value was 0.200. `O=C(O)c1cn(-c2ccc(F)cc2F)c2nc(NC3CCN(c4cc5c(cc4F)c(=O)c(C(=O)O)cn5C4CC4)C3)c(F)cc2c1=O` (stereo not drawn) [Bis compound 1, N-1-{7-(1-cyclopropyl-6-fluoro-1,4-dihydro-4-oxo-quinoline-3-carboxylic acid)}-N-3-amino-{7-(1-(2,4-difluorophenyl)-6-fluoro-1,4-dihydro-4-oxo-1,8-naphthyridine-3-carboxylic acid)}-pyrrolidine] was tested, and the “FIC INDEX” value was 0.253. In the case of `O=C(O)c1cn(C2CC2)c2nc(NC3CCN(c4nc5c(cc4F)c(=O)c(C(=O)O)cn5C4CC4)C3)c(F)cc2c1=O` (stereo not drawn) [Bis compound 2], the “FIC INDEX” value is reported as 0.282. With `Nc1c(F)c(NC2CCN(c3nc4c(cc3F)c(=O)c(C(=O)O)cn4C3CC3)C2)c(F)c2c1c(=O)c(C(=O)O)cn2C1CC1` (stereo not drawn) [Bis compound 3] the “FIC INDEX” value was 0.314. In the case of `Nc1c(F)c(N2CCN(c3nc4c(cc3F)c(=O)c(C(=O)O)cn4C3CC3)CC2)c(F)c2c1c(=O)c(C(=O)O)cn2C1CC1` [Bis compound 4, N-1-{7-(1-cyclopropyl-6-fluoro-1,4-dihydro-4-oxo-1,8-naphthyridine-3-carboxylic acid)}-N-4-{7-(1-cyclopropyl-6,8-difluoro-5-amino-1,4-dihydro-4-oxo-quinoline-3-carboxylic acid)}-piperazine], the “FIC INDEX” value is reported as 0.282. For `Cc1c(F)c(N2CCC(Nc3nc4c(cc3F)c(=O)c(C(=O)O)cn4-c3ccc(F)cc3F)C2)cc2c1c(=O)c(C(=O)O)cn2C1CC1` (stereo not drawn) [Bis compound 5, N-1-{7-(1-cyclopropyl-6-fluoro-5-methyl-1,4-dihydro-4-oxo-quinolone-3-carboxylic acid)}-N-3-amino-{7-(1-(2,4-difluorophenyl)-6-fluoro-1,4-dihydro-4-oxo-1,8-naphthyridine-3-carboxylic acid)}-pyrrolidine], the “FIC INDEX” value was 0.320. In the case of `Cc1c(F)c(N2CCC(Nc3c(F)c(N)c4c(=O)c(C(=O)O)cn(C5CC5)c4c3F)CC2)cc2c1c(=O)c(C(=O)O)cn2C1CC1` [Bis compound 6, N-1-{7-(1-cyclopropyl-6-fluoro-5-methyl-1,4-dihydro-4-oxo-quinolone-3-carboxylic acid)}-N-4-amino{7-(1-cyclopropyl-6,8-difluoro-5-amino-1,4-dihydro-4-oxo-quinoline-3-carboxylic acid)}-piperidine], the “FIC INDEX” value is reported as 0.304. For `Cc1c(F)c(N2CCC(Nc3c(F)c(N)c4c(=O)c(C(=O)O)cn(C5CC5)c4c3F)C2)cc2c1c(=O)c(C(=O)O)cn2C1CC1` (stereo not drawn) [Bis compound 7, N-1-{7-(1-cyclopropyl-6-fluoro-5-methyl-1,4-dihydro-4-oxo-quinolone-3-carboxylic acid)}-N-3-amino{7-(1-cyclopropyl-6,8-difluoro-5-amino-1,4-dihydro-4-oxo-quinoline-3-carboxylic acid)}-pyrrolidine], the “FIC INDEX” value was 0.304. With `O=C(O)c1cn(-c2ccc(F)cc2F)c2nc(N3CCN(c4cc5c(cc4F)c(=O)c(C(=O)O)cn5C4CC4)CC3)c(F)cc2c1=O` [Bis compound 8, N-1-{7-(1-(2,4-difluorophenyl)-6-fluoro-1,4-dihydro-4-oxo-1,8-naphthyridine-3-carboxylic acid)}-N-4-{7-(1-cyclopropyl-6-fluoro-1,4-dihydro-4-oxo-quinoline-3-carboxylic acid)}-piperazine] the “FIC INDEX” value was 0.192. With `CCOC(=O)c1cc(F)c(NC2CCN(c3c(F)c(N)c4c(=O)c(C(=O)O)cn(C5CC5)c4c3F)CC2)c(F)c1F` [Bis compound 10, N-1-{7-(1-cyclopropyl-6,8-difluoro-5-amino-1,4-dihydro-4-oxo-quinolone-3-carboxylic acid)}-N-4-amino-{ethyl 2,3,6-trifluorophenyl-4-carboxylate}-piperidine] the “FIC INDEX” value was 0.304. In the case of `CCn1cc(C(=O)O)c(=O)c2cc(F)c(N3CCC(OC(C)=O)CC3)c(F)c21` [Example 2 (NorA), 1-Ethyl-6,8-fluoro-1,4-dihydro-7-(4′-acetoxypiperidin-1-yl)-4-oxo-quinoline-3-carboxylic acid], the “FIC INDEX” value is reported as 0.314. `CCn1cc(C(=O)O)c(=O)c2cc(F)c(N3CCN(CCN4CCOC4=O)CC3)c(F)c21` [Example 3 (NorA), 1-Ethyl-6,8-fluoro-1,4-dihydro-7-(4′-{2′-(2′-oxazolidin-1yl)ethyl}piperazin-1-yl)-4-oxo-quinoline-3-carboxylic acid] was tested, and the “FIC INDEX” value was 0.188. `CCn1cc(C(=O)O)c(=O)c2c(N)c(F)c(N3CCC(N)CC3)c(F)c21` [Example 6 (NorA), 5-Amino-1-ethyl-6,8-difluoro-1,4-dihydro-7-(4′-aminopiperidin-1-yl)-4-oxo-quinoline-3-carboxylic acid] was tested, and the “FIC INDEX” value was 0.314. `CCn1cc(C(=O)O)c(=O)c2c(N)c(F)c(N3CCC(NC(C)=O)CC3)c(F)c21` [Example 7 (NorA), 5-Amino-1-ethyl-6,8-difluoro-1,4-dihydro-7-{4′-(acetamido)piperidin-1-yl}-4-oxo-quinoline-3-carboxylic acid] was tested, and the “FIC INDEX” value was 0.312. `CC1CC(N)CN1c1cc2c(cc1F)c(=O)c(C(=O)O)cn2C1CC1` (stereo not drawn) [Example 10 (NorA), 1-Cyclopropyl-6-fluoro-1,4-dihydro-7-(3′-amino-5′-methylpyrrolidin-1-yl)-4-oxo-quinoline-3-carboxylic acid] was tested, and the “FIC INDEX” value was 0.314. With `CC(=O)OC1CCN(c2cc3c(cc2F)c(=O)c(C(=O)O)cn3C2CC2)CC1` [Example 11 (NorA), 1-Cyclopropyl-6-fluoro-1,4-dihydro-7-(4′-acetoxypiperidin-1-yl)-4-oxo-quinoline-3-carboxylic acid] the “FIC INDEX” value was 0.282. In the case of `CN(C)C1CCN(c2cc3c(cc2F)c(=O)c(C(=O)O)cn3C2CC2)CC1` [Example 12 (NorA), 1-Cyclopropyl-6-fluoro-1,4-dihydro-7-(4′-(N-dimethylamino)piperidin-1-yl)-4-oxo-quinoline-3-carboxylic acid], the “FIC INDEX” value is reported as 0.188. For `CC1CC(C)CN(c2cc3c(cc2F)c(=O)c(C(=O)O)cn3C2CC2)C1` (stereo not drawn) [Example 13 (NorA), 1-Cyclopropyl-6-fluoro-1,4-dihydro-7-(3′,5′-dimethylpiperidin-1-yl)-4-oxo-quinoline-3-carboxylic acid], the “FIC INDEX” value was 0.314. With `CC1CN(c2cc3c(cc2F)c(=O)c(C(=O)O)cn3C2CC2)CC(C)C1O` (stereo not drawn) [Example 14 (NorA), 1-Cyclopropyl-6-fluoro-1,4-dihydro-7-(4′-hydroxy-3′,5′-dimethylpiperidin-1-yl)-4-oxo-quinoline-3-carboxylic acid] the “FIC INDEX” value was 0.314. In the case of `CC1CN(c2cc3c(cc2F)c(=O)c(C(=O)O)cn3C2CC2)CC(C)N1C` (stereo not drawn) [Example 15 (NorA), 1-Cyclopropyl-6-fluoro-1,4-dihydro-7-(3′,4′,5′-trimethylpiperazin-1-yl)-4-oxo-quinoline-3-carboxylic acid], the “FIC INDEX” value is reported as 0.314. For `CCOC1CCN(c2cc3c(c(C)c2F)c(=O)c(C(=O)O)cn3C2CC2)CC1` [Example 17 (NorA), 1-Cyclopropyl-6-fluoro-1,4-dihydro-5-methyl-7-(4′-ethoxypiperidin-1-yl)-4-oxo-quinoline-3-carboxylic acid], the “FIC INDEX” value was 0.378. With `Cc1c(F)c(N2CCNC(C)(C)C2)cc2c1c(=O)c(C(=O)O)cn2C1CC1` [Example 18 (NorA), 1-Cyclopropyl-6-fluoro-1,4-dihydro-5-methyl-7-(3′,3′-dimethylpiperazin-1-yl)-4-oxo-quinoline-3-carboxylic acid] the “FIC INDEX” value was 0.314. With `COc1c(N2CCC(O)C(CC(C)C)C2)c(F)cc2c(=O)c(C(=O)O)cn(C3CC3)c12` (stereo not drawn) [Example 20 (NorA), 1-Cyclopropyl-6-fluoro-8-methoxy-1,4-dihydro-7-(4′-hydroxy-3′-isobutylpiperidin-1-yl)-4-oxo-quinoline-3-carboxylic acid] the “FIC INDEX” value was 0.248.
